Measured values from patent US20180280400A1, “TRANSDERMAL ADMINISTRATION SYSTEM FOR USE IN THE TREATMENT OF CHRONIC BRONCHOPULMONARY DISEASES” (ABC FARMACEUTICI S.P.A., priority 2013, published 2018).

Legend:
in vitro = details: dog, MDCK, pH 7.4
Protocol: (§1) MDCK cells were kept in Minimal Essential Medium Eagle (EMEM) containing 10% FBS, 2 nM of fresh L-glutamine and 2 nM of penicillin-streptomycin. The culture inserts were inseminated with 664000 cells per cm^2 (0.33 cm^2 per insert). The monolayers of MDCK were cultured for three days before use. The monolayers were washed with Hanks Balanced Salt Solution (HBSS+10 nM Hepes pH 7.4) transport medium; the electrical resistance of each monolayer was measured at 37° C. using a Millicell ERS-2 (Millipore). Background resistance values were subtracted from the resistance values of treated wells of monolayer. The resulting value was multiplied by the area of the membrane (0.33 cm^2) to calculate the transepithelial electrical resistance values (TEER (Ω cm^2)) for each monolayer. TEER values indicate the degree of confluence of the monolayer and the development of tight junctions. If the resistance was <200 Ω cm^2 the test was continued. MDCK monolayers having TEER values>200 Ω cm^2 were not used. The donor solutions in the transport test comprised 100 μM of test compound in the transport medium containing 100 nM of fluorescein isocyanate-dextran. The transport tests were performed using 0.250 ml of apical donor solution and 1 ml of basolateral acceptor solution (transport medium, pH 7.4). […] The monolayers were incubated with donor and acceptor solutions for 120 minutes at 37° C. The basolateral compartments were sampled after 120 minutes and analysed using LC-MS/MS, together with an aliquot of the donor solutions in the transport test (100 μM of the test compound) corresponding to (sample at time zero).
(§2) in which dQ/dt is the permeation velocity, CA is the initial concentration in the donor compartment and A is the surface area of the filter. […]
(§3) The integrated peak area for the LC-MS/MS chromatograms was used as the instrument response (INRE) for relative quantification of the test material.
(§4) The permeability of the test material was then evaluated by comparing the INRE for five replicates after two hours incubation, on the basis of the INRE response to the t0 samples.

[1] = system: human keratinocyte cell lines (HACAT); assay: MTT cytotoxicity test, HACAT; assay type: cell-based
[2] = system: human endothelial cells from the umbilical vein (HUVEC); assay: MTT cytotoxicity test, HUVEC; assay type: cell-based
[3] = system: human fibroblast cell lines (HFF); assay: MTT cytotoxicity test, HFF; assay type: cell-based
[4] = In vitro-ex vivo skin permeation across human epidermis, Franz diffusion cells; assay type: in vitro ADME; details: 4% w/v, up to 24 hours
Protocol: The Franz diffusion cells comprise two compartments, one containing the active ingredient (donor vehicle) and the other containing a receiving solution, separated by a slice of human epidermis. The vertical cells used in the actual experimental unit have a wider column than that in the original Franz type of diffusion cell, and the decanter shape was dispensed with. These have a diffusion area of 0.636 cm^2 and a receiving compartment of approximately 3.0 ml. The receiving volume in each cell is individually calibrated and equipped with a magnetic stirrer. Human epidermis was selected as the membrane for skin permeation studies. The skin used in the studies was obtained from the abdominal skin of a donor who underwent cosmetic surgery. The skin samples were prepared following an internal standard procedure. The full thickness of the skin was sealed in evacuated plastic bags and frozen at -20° C. within 6 hours of removal. Before the experiments the skin was thawed out at ambient temperature and excess fat was completely removed. […] The integrity of the skin was evaluated by measuring the impedance of each sample (Agilent LCR Meter 4263B). Subsequently the epidermis was mounted in the Franz diffusion cell, the receiving compartment of which was filled with saline solution (NaCl 0.9% w/v) filtered using a 0.22 μm filter (VWR, nylon membrane). […]

[5] = with chemical potentiating agents, including oleic acid; cited from earlier work

Protocol for MDCK monolayers: as §1, §2, §3, §4

SMILES | Papp A→B at 120 min, 100 µM (in vitro) [×10⁻⁶ cm/s] | cytotoxicity (MTT test) [1] | permeability value (in words) (MDCK monolayers) | cytotoxicity (MTT test) [2] | cytotoxicity (MTT test) [3] | skin permeability values (permeate over time) ([4]; aqueous solvent, FIG. 1) | skin permeability values (permeate over time) ([4]; triacetin solvent, FIG. 2) | administered flow through human skin [5]
COCCc1ccc(OCC(O)CNC(C)C)cc1 (stereo not drawn) [Metoprolol, metoprolol] | 6.52 |  |  |  |  |  |  | 
Cn1c(=O)c2c(ncn2CC2OCCO2)n(C)c1=O [Doxofylline, 2-(7′-theophyllinemethyl)-1,3-dioxolane] | 22.7 | no cytotoxicity | high permeability value | no cytotoxicity | no cytotoxicity | substantially higher than those for theophylline | substantially higher than those for theophylline | 
Cn1c(=O)c2[nH]cnc2n(C)c1=O [Theophylline, theophylline] |  |  |  |  |  |  |  | insufficient
